Measured values published in the NIST ThermoML archive (doi:10.1021/je900482x).

Test: isobaric coefficient of expansion
Conditions: Liquid, Microcalorimeter

CCCCCCCC[n+]1ccn(C)c1.F[B-](F)(F)F [1-methyl-3-octylimidazolium tetrafluoroborate]
isobaric coefficient of expansion
Conditions	5000 kPa	10000 kPa	15000 kPa	20000 kPa	25000 kPa	30000 kPa	35000 kPa	40000 kPa	45000 kPa	50000 kPa
278.15 K	0.000621 1/K	0.000613 1/K	0.000605 1/K	0.000598 1/K	0.00059 1/K	0.000584 1/K	0.000576 1/K	0.000572 1/K	0.000562 1/K	0.000558 1/K
288.15 K	0.000616 1/K	0.000606 1/K	0.0006 1/K	0.000593 1/K	0.000586 1/K	0.000579 1/K	0.000572 1/K	0.000565 1/K	0.000558 1/K	0.000555 1/K
298.15 K	0.00061 1/K	0.000603 1/K	0.000595 1/K	0.000586 1/K	0.00058 1/K	0.000573 1/K	0.000564 1/K	0.000558 1/K	0.000552 1/K	0.000547 1/K
308.15 K	0.000605 1/K	0.000596 1/K	0.000589 1/K	0.000579 1/K	0.000572 1/K	0.000565 1/K	0.00056 1/K	0.000553 1/K	0.000545 1/K	0.000541 1/K
318.15 K	0.000599 1/K	0.000594 1/K	0.000585 1/K	0.000573 1/K	0.000566 1/K	0.00056 1/K	0.000554 1/K	0.000545 1/K	0.000537 1/K	0.000532 1/K
328.15 K	0.000594 1/K	0.000587 1/K	0.00058 1/K	0.000572 1/K	0.000562 1/K	0.000555 1/K	0.000549 1/K	0.00054 1/K	0.000536 1/K	0.000531 1/K
338.15 K	0.000591 1/K	0.000584 1/K	0.000575 1/K	0.000567 1/K	0.000558 1/K	0.000553 1/K	0.000544 1/K	0.000538 1/K	0.000532 1/K	0.000528 1/K
348.15 K	0.000588 1/K	0.000582 1/K	0.000572 1/K	0.000563 1/K	0.000555 1/K	0.000548 1/K	0.000543 1/K	0.000535 1/K	0.000529 1/K	0.000522 1/K
